Test results reported in PubChem BioAssay AID248 (DTP/NCI, 2004).
Several values for one entry are separate records, joined by “and”; a condition that tells them apart may be missing. Identical values can stand only once. Inconclusive results and toxic doses are left out. No stated cut-off is given here; in the data, active means T/C of 150% or more; inactive means T/C below 125%.

Test system: L1210 leukemia ip in BDF1 mice, survival T/C
Assay: NCI In Vivo Anticancer Drug Screen. Data for tumor model L1210 Leukemia (intraperitoneal) in B6D2F1 (BDF1) mice
Conditions: higher = longer survival
In short: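 In this screen, tumor-bearing mice given compound are compared to those given vehicle, and their survival values are reported as a treated-to-control quotient.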

[1] = endpoint: mean survival time, dose: 25.0 mg/kg/injection, schedule: Q01DX009 (ip), vehicle: saline
[2] = endpoint: mean survival time, dose: 50.0 mg/kg/injection, schedule: Q01DX009 (ip), vehicle: saline
[3] = endpoint: mean survival time, dose: 100.0 mg/kg/injection, schedule: Q01DX009 (ip), vehicle: saline
[4] = endpoint: mean survival time, dose: 100.0 mg/kg/injection, schedule: Q04DX002 (ip), vehicle: saline
[5] = endpoint: mean survival time, dose: 100.0 mg/kg/injection, schedule: Q04DX003 (ip), vehicle: Klucel (hydroxypropylcellulose) (HPC)
[6] = endpoint: mean survival time, dose: 200.0 mg/kg/injection, schedule: Q04DX003 (ip), vehicle: Klucel (hydroxypropylcellulose) (HPC)
[7] = endpoint: mean survival time, dose: 400.0 mg/kg/injection, schedule: Q04DX003 (ip), vehicle: Klucel (hydroxypropylcellulose) (HPC)
[8] = endpoint: mean survival time, dose: 100.0 mg/kg/injection, schedule: Q01DX001 (ip), vehicle: carboxymethylcellulose (CMC)
[9] = endpoint: mean survival time, dose: 200.0 mg/kg/injection, schedule: Q01DX001 (ip), vehicle: carboxymethylcellulose (CMC)
[10] = endpoint: mean survival time, dose: 400.0 mg/kg/injection, schedule: Q01DX001 (ip), vehicle: carboxymethylcellulose (CMC)
[11] = endpoint: mean survival time, dose: 100.0 mg/kg/injection, schedule: Q01DX001 (ip), vehicle: saline

Measured: T/C

Cc1ccc(S(=O)(=O)OCCN2C(=O)NC(c3ccccc3)(c3ccccc3)C2=O)cc1
inactive: endpoint: mean survival time, dose: 3.1 mg/kg/injection, schedule: Q01DX009 (ip), vehicle: saline 104 % of control | endpoint: mean survival time, dose: 6.25 mg/kg/injection, schedule: Q01DX009 (ip), vehicle: saline 100 % of control | endpoint: mean survival time, dose: 12.5 mg/kg/injection, schedule: Q01DX009 (ip), vehicle: saline 104 % of control | [1] 98 % of control | [2] 100 % of control | [3] 102 % of control | endpoint: mean survival time, dose: 150.0 mg/kg/injection, schedule: Q04DX003 (ip), vehicle: saline with Tween-80 109 % of control | endpoint: mean survival time, dose: 225.0 mg/kg/injection, schedule: Q04DX003 (ip), vehicle: saline with Tween-80 109 % of control | endpoint: mean survival time, dose: 335.0 mg/kg/injection, schedule: Q04DX003 (ip), vehicle: saline with Tween-80 98 % of control

OCC1OC(n2cnc3c(NCCNc4ncnc5c4ncn5C4OC(CO)C(O)C4O)ncnc32)C(O)C1O (configuration not stated)
inactive: endpoint: mean survival time, dose: 50.0 mg/kg/injection, schedule: Q04DX002 (ip), vehicle: saline 102 % of control | [4] 110 % of control

O=S(Cc1ccc(Cl)cc1)c1ccc(Cl)cc1 (configuration not stated)
inactive: [5] 97 % of control | [6] 90 % of control | [7] 104 % of control

NCCCNCCCCNCCCN
inactive: endpoint: mean survival time, dose: 2.0 mg/kg/injection, schedule: Q01DX010 (ip), vehicle: other 103 % of control | endpoint: mean survival time, dose: 4.0 mg/kg/injection, schedule: Q01DX010 (ip), vehicle: other 103 % of control | endpoint: mean survival time, dose: 8.0 mg/kg/injection, schedule: Q01DX010 (ip), vehicle: other 97 % of control | endpoint: mean survival time, dose: 16.0 mg/kg/injection, schedule: Q01DX010 (ip), vehicle: other 92 % of control | endpoint: mean survival time, dose: 32.0 mg/kg/injection, schedule: Q01DX010 (ip), vehicle: other 97 % of control | endpoint: median survival time, dose: 6.3 mg/kg/injection, schedule: Q01DX009 (ip), vehicle: water 87 % of control and 90 % of control | endpoint: median survival time, dose: 12.5 mg/kg/injection, schedule: Q01DX009 (ip), vehicle: water 96 % of control and 100 % of control | endpoint: median survival time, dose: 25.0 mg/kg/injection, schedule: Q01DX009 (ip), vehicle: water 94 % of control and 95 % of control | endpoint: median survival time, dose: 50.0 mg/kg/injection, schedule: Q01DX009 (ip), vehicle: water 96 % of control and 100 % of control

CCCCCCC1N(Cc2ccccc2OC)CCCN1Cc1ccccc1OC
inactive: [8] 100 % of control | [9] 105 % of control | [10] 94 % of control

CN(C)S(=O)(=O)c1ccc(NC(=O)OC2CCCC2)cc1
inactive: [8] 93 % of control | [9] 98 % of control | [10] 98 % of control

CC(C)c1nccn1Cc1ccccc1
inactive: endpoint: mean survival time, dose: 25.0 mg/kg/injection, schedule: Q01DX001 (ip), vehicle: saline 97 % of control | [1] 105 % of control and 118 % of control | endpoint: mean survival time, dose: 25.0 mg/kg/injection, schedule: Q04DX002 (ip), vehicle: saline 100 % of control and 101 % of control and 90 % of control | endpoint: mean survival time, dose: 25.0 mg/kg/injection, schedule: Q04DX003 (ip), vehicle: saline 100 % of control | endpoint: mean survival time, dose: 50.0 mg/kg/injection, schedule: Q01DX001 (ip), vehicle: saline 97 % of control | [2] 100 % of control and 102 % of control | endpoint: mean survival time, dose: 50.0 mg/kg/injection, schedule: Q04DX003 (ip), vehicle: saline 92 % of control | endpoint: mean survival time, dose: 75.0 mg/kg/injection, schedule: Q04DX002 (ip), vehicle: saline 106 % of control | [11] 112 % of control | [3] 100 % of control and 89 % of control

CC1(C)CCCC2(C)C3=C(CC4(C(C)(C)O)OC4C3=O)C(=O)CC12 (configuration not stated)
inactive: [11] 102 % of control | endpoint: mean survival time, dose: 200.0 mg/kg/injection, schedule: Q01DX001 (ip), vehicle: saline 105 % of control | endpoint: mean survival time, dose: 400.0 mg/kg/injection, schedule: Q01DX001 (ip), vehicle: saline 109 % of control

CC1(C)N=C(N)N=C(N)N1c1ccc(CCCCc2ccc(S(=O)(=O)F)cc2)c(Cl)c1
inactive: endpoint: mean survival time, dose: 7.5 mg/kg/injection, schedule: Q01DX001 (ip), vehicle: saline 99 % of control | endpoint: mean survival time, dose: 7.5 mg/kg/injection, schedule: Q04DX003 (ip), vehicle: saline 104 % of control | endpoint: mean survival time, dose: 13.0 mg/kg/injection, schedule: Q01DX007 (ip), vehicle: saline with Tween-80 109 % of control | endpoint: mean survival time, dose: 15.0 mg/kg/injection, schedule: Q01DX001 (ip), vehicle: saline 99 % of control | endpoint: mean survival time, dose: 15.0 mg/kg/injection, schedule: Q04DX003 (ip), vehicle: saline 106 % of control | endpoint: mean survival time, dose: 20.0 mg/kg/injection, schedule: Q01DX007 (ip), vehicle: saline with Tween-80 116 % of control | endpoint: mean survival time, dose: 30.0 mg/kg/injection, schedule: Q01DX001 (ip), vehicle: saline 94 % of control | endpoint: mean survival time, dose: 30.0 mg/kg/injection, schedule: Q01DX007 (ip), vehicle: saline with Tween-80 122 % of control | endpoint: mean survival time, dose: 30.0 mg/kg/injection, schedule: Q04DX003 (ip), vehicle: saline 109 % of control | endpoint: mean survival time, dose: 45.0 mg/kg/injection, schedule: Q01DX007 (ip), vehicle: saline with Tween-80 95 % of control

O=C(Nc1ccccc1Cl)Nc1cccc2ccccc12
inactive: endpoint: mean survival time, dose: 100.0 mg/kg/injection, schedule: Q04DX002 (ip), vehicle: Klucel (hydroxypropylcellulose) (HPC) 105 % of control | endpoint: mean survival time, dose: 200.0 mg/kg/injection, schedule: Q04DX002 (ip), vehicle: Klucel (hydroxypropylcellulose) (HPC) 102 % of control | endpoint: mean survival time, dose: 400.0 mg/kg/injection, schedule: Q04DX002 (ip), vehicle: Klucel (hydroxypropylcellulose) (HPC) 98 % of control

COC(C)C(OC)OC (configuration not stated)
inactive: [3] 98 % of control | endpoint: mean survival time, dose: 100.0 mg/kg/injection, schedule: Q04DX003 (ip), vehicle: saline 101 % of control | endpoint: mean survival time, dose: 200.0 mg/kg/injection, schedule: Q01DX009 (ip), vehicle: saline 96 % of control | endpoint: mean survival time, dose: 200.0 mg/kg/injection, schedule: Q04DX003 (ip), vehicle: saline 103 % of control | endpoint: mean survival time, dose: 400.0 mg/kg/injection, schedule: Q01DX009 (ip), vehicle: saline 96 % of control | endpoint: mean survival time, dose: 400.0 mg/kg/injection, schedule: Q04DX003 (ip), vehicle: saline 92 % of control

CCCCCCCCCCCCCCCCOc1ccccc1/C=N/O
inactive: endpoint: mean survival time, dose: 100.0 mg/kg/injection, schedule: Q04DX003 (ip), vehicle: saline with Tween-80 94 % of control | endpoint: mean survival time, dose: 200.0 mg/kg/injection, schedule: Q04DX003 (ip), vehicle: saline with Tween-80 95 % of control | endpoint: mean survival time, dose: 400.0 mg/kg/injection, schedule: Q04DX003 (ip), vehicle: saline with Tween-80 90 % of control

c1ccc2c(CCCc3nccc4ccccc34)nccc2c1
inactive: endpoint: mean survival time, dose: 100.0 mg/kg/injection, schedule: Q01DX001 (ip), vehicle: Klucel (hydroxypropylcellulose) (HPC) 102 % of control | [5] 108 % of control | endpoint: mean survival time, dose: 200.0 mg/kg/injection, schedule: Q01DX001 (ip), vehicle: Klucel (hydroxypropylcellulose) (HPC) 104 % of control | [6] 108 % of control | endpoint: mean survival time, dose: 400.0 mg/kg/injection, schedule: Q01DX001 (ip), vehicle: Klucel (hydroxypropylcellulose) (HPC) 108 % of control | [7] 102 % of control

C[N+](C)(C)CCCS(=O)(=O)[O-]
inactive: endpoint: mean survival time, dose: 50.0 mg/kg/injection, schedule: Q01DX001 (sc), vehicle: saline 98 % of control | endpoint: mean survival time, dose: 100.0 mg/kg/injection, schedule: Q01DX001 (sc), vehicle: saline 98 % of control | [4] 100 % of control | endpoint: mean survival time, dose: 200.0 mg/kg/injection, schedule: Q01DX001 (sc), vehicle: saline 109 % of control | endpoint: mean survival time, dose: 200.0 mg/kg/injection, schedule: Q04DX002 (ip), vehicle: saline 111 % of control | endpoint: mean survival time, dose: 400.0 mg/kg/injection, schedule: Q01DX001 (sc), vehicle: saline 98 % of control | endpoint: mean survival time, dose: 400.0 mg/kg/injection, schedule: Q04DX002 (ip), vehicle: saline 95 % of control

O=C(C(Br)c1ccccc1)C(Br)c1ccccc1 (configuration not stated)
inactive: endpoint: mean survival time, dose: 6.25 mg/kg/injection, schedule: Q01DX009 (ip), vehicle: saline with Tween-80 104 % of control | endpoint: mean survival time, dose: 12.5 mg/kg/injection, schedule: Q01DX009 (ip), vehicle: saline with Tween-80 98 % of control and 107 % of control | endpoint: mean survival time, dose: 12.5 mg/kg/injection, schedule: Q04DX003 (ip), vehicle: saline with Tween-80 96 % of control | endpoint: mean survival time, dose: 25.0 mg/kg/injection, schedule: Q01DX009 (ip), vehicle: saline with Tween-80 100 % of control and 110 % of control | endpoint: mean survival time, dose: 25.0 mg/kg/injection, schedule: Q04DX003 (ip), vehicle: saline with Tween-80 90 % of control | endpoint: mean survival time, dose: 50.0 mg/kg/injection, schedule: Q01DX009 (ip), vehicle: saline with Tween-80 102 % of control | endpoint: mean survival time, dose: 50.0 mg/kg/injection, schedule: Q04DX003 (ip), vehicle: saline with Tween-80 101 % of control

CC(S)c1ccc2c(c1)Cc1ccccc1-2 (configuration not stated)
inactive: [8] 101 % of control | [9] 101 % of control | [10] 104 % of control
